According to patent US11028072B2, “2,4-diamino-6-ethylpyrimidine derivatives with antimalarial activities against Plasmodium falciparum” (National Science and Technology Development Agency, priority 2015, dated 2021):
Read-outs that look alike come from different tables or passages of the source.

What was measured:
[1] = target: T1, Human dihydrofolate reductase (hDHFR) (Homo sapiens, UniProt P00374); experiment: Inhibition of human dihydrofolate reductase (Ki); type: biochemical; details: human DHFR; hydrochloride salts
T1 sequence (P00374 1-187): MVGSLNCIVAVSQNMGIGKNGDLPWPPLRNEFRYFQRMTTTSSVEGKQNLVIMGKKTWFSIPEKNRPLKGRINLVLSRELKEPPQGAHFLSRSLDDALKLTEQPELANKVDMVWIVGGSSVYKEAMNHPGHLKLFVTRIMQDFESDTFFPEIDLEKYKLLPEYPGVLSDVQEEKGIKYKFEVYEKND

[2] = test system: P. falciparum V1/S (N51I + C59R + S108 + I164L); experiment: microbe, parasite or virus in culture; type: cell-based, Plasmodium falciparum; details: Plasmodium falciparum, read-out: IC50 P. falciparum V1/S
Source text: (§1) In Vitro Antimalarial Activites Against P. falciparum and Cytotoxicity Towards Mammalian Cells (Vero Cells)

[3] = test system: P. falciparum TM4/8.2 (wild type); experiment: microbe, parasite or virus in culture; type: cell-based, Plasmodium falciparum; details: Plasmodium falciparum, read-out: IC50 P. falciparum TM4/8.2 (WT)
Source text: as §1

wild type (WT) pfDHFR = wild type (WT) pfDHFR (Plasmodium falciparum, UniProt P13922, N108S/R59C); experiment: Inhibition of wild type pfDHFR (Ki); type: biochemical
wild type (WT) pfDHFR, sequence (P13922 whole entry R59C/N108S): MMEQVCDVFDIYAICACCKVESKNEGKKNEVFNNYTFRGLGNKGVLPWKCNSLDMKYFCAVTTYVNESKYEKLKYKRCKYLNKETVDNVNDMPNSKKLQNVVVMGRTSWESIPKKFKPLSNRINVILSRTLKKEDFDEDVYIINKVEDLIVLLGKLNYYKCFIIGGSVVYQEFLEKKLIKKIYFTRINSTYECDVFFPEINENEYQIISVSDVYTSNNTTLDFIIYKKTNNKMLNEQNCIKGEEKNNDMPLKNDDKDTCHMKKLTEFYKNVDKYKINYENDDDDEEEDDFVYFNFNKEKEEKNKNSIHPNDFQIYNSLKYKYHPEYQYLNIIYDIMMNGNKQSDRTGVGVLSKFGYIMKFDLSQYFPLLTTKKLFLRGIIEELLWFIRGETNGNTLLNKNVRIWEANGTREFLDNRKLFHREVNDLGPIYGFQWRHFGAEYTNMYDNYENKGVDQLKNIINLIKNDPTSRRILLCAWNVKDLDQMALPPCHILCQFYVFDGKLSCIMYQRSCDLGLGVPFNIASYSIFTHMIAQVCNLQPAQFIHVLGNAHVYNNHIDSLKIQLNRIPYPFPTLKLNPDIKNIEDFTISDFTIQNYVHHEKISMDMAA
Protocol: (§2) The synthesized 2,4-diamino-6-ethylpyrimdine derivatives as the hydrochloride salts were tested for the activities against Plasmodium falciparum (P. falciparum) according to the standard methods. These include the inhibition of dihydrofolate reductase (DHFR) enzymes of P. falciparum including, wild type (WT) and quadruple mutants (N51IC59RS108NI164L) (QM). The inhibition was expressed as inhibition constants (Ki) in nano molar (nM).

in vitro = details: African green monkey
Source text: as §1

[4] = target: quadruple mutant N51I + C59R + S108N + I164L (QM) pfDHFR (Plasmodium falciparum, UniProt P13922, I164L/N51I); experiment: Inhibition of quadruple mutant pfDHFR (Ki); type: biochemical
quadruple mutant N51I + C59R + S108N + I164L (QM) pfDHFR, sequence (P13922 whole entry N51I/I164L): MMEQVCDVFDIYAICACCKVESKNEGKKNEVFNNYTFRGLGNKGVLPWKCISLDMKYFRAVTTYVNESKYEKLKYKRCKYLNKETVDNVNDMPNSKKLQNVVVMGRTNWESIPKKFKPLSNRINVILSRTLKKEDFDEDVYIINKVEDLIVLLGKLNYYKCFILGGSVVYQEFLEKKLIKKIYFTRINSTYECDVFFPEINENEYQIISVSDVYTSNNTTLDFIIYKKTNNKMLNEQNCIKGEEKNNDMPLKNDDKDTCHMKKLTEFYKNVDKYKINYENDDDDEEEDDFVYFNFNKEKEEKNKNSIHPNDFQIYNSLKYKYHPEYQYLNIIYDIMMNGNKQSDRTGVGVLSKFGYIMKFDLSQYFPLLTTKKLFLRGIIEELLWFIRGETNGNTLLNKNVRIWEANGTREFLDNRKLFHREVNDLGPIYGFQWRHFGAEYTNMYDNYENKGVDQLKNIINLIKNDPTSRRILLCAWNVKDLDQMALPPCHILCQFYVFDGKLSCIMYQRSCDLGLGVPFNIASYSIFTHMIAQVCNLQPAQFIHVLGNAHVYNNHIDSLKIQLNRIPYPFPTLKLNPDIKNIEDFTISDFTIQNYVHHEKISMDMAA
Protocol: as §2

[5] = in vitro, quadruple mutant strain V1/S
[6] = in vitro, wild-type strain TM4/8.2

Row | SMILES | Ki [1] [µM] | IC50 [2, 5] [µM] | IC50 [3, 6] [µM] | Ki (wild type (WT) pfDHFR) [µM] | IC50 (in vitro) [µM] | Ki [4] [µM] | Ki hDHFR [1] | Ki pfDHFR N51I + C59R + S108N + I164L (QM) ([4]; quadruple mutant pfDHFR, hydrochloride salts) | IC50 [2] [µM] | IC50 [3] [µM]
1 | CCc1nc(N)nc(N)c1OCc1csc(-c2ccccc2)n1 [Compound 60] | 0.276 ± 0.0167 | 20.8 ± 1.86 | 1.2 ± 0.38 | 0.00102 ± 0.00014 | > 50 | 0.0388 ± 0.00558 |  |  |  | 
2 | CCc1nc(N)nc(N)c1OCc1cn(Cc2ccc(O)cc2)nn1 [Compound 28] |  | > 1 | > 1 | 0.0537 ± 0.0056 | > 1 |  | High | High |  | 
3 | CCc1nc(N)nc(N)c1OCCCc1cc(-c2ccc(Cl)cc2)no1 [Compound 45] | 0.037 ± 0.00536 | 6.37 ± 1.97 | 0.27 ± 0.08 | 0.00199 ± 0.00043 | > 50 | 0.0039 ± 0.00068 |  |  |  | 
4 | CCc1nc(N)nc(N)c1OCc1cc(-c2ccccc2)no1 [Compound 33] | 1.48 ± 0.0689 | 15.7 ± 4.48 | 0.67 ± 0.13 | 0.00051 ± 8e-05 | > 25 | 0.0381 ± 0.00627 |  |  |  | 
5 | CCc1nc(N)nc(N)c1OCc1coc(-c2ccc(Cl)cc2)n1 [Compound 55] | > 100 | > 25 | 0.87 ± 0.11 | 0.00114 ± 0.00017 | > 25 | 0.0329 ± 0.00413 |  |  |  | 
6 | CCc1nc(N)nc(N)c1OCc1coc(-c2cccc(C)c2)n1 [Compound 51] | 0.256 ± 0.00925 | 21.9 ± 5.88 | 0.83 ± 0.05 | 0.00044 ± 5e-05 | 75.9 ± 11 | 0.048 ± 0.00154 |  |  |  | 
7 | CCc1nc(N)nc(N)c1-c1cn(CCCOc2ccc(Cl)cc2)nn1 [Compound 11] | 1.12 ± 0.0914 | > 50 | 2.42 ± 0.55 | 0.00112 ± 8e-05 | 48.7 ± 13.6 | 0.0321 ± 0.00831 |  |  |  | 
8 | CCc1nc(N)nc(N)c1OCc1cn(Cc2cccc(C(=O)O)c2)nn1 [Compound 26] |  | > 25 | > 25 | 0.0195 ± 0.00106 | > 25 | 0.388 ± 0.0262 | High |  |  | 
9 | CCc1nc(N)nc(N)c1OCc1coc(-c2ccc(OCC(=O)OCc3ccccc3)cc2)n1 [Compound 56] | > 100 | 23.3 ± 2.47 | 0.58 ± 0.22 | 0.00081 ± 7e-05 | > 100 | 0.0467 ± 0.00468 |  |  |  | 
10 | CCc1nc(N)nc(N)c1OCCCc1cn(-c2ccc(C(=O)OC)cc2)nn1 [Compound 24] | 0.019 ± 0.00192 |  |  | 0.00015 ± 2e-05 | > 2 | 0.0019 ± 8e-05 |  |  | > 2 | 0.055 ± 0.006
11 | CCc1nc(N)nc(N)c1OCc1cc(-c2ccc([N+](=O)[O-])cc2)no1 [Compound 43] | > 100 | > 50 | 33.2 ± 14.2 | 0.00402 ± 0.00057 | > 50 | 0.306 ± 0.0365 |  |  |  | 
12 | CCc1nc(N)nc(N)c1OCc1cc(-c2ccc(Br)cc2)no1 [Compound 36] | 1.35 ± 0.104 | 17.5 ± 2.96 | 2.86 ± 0.56 | 0.00103 ± 0.0002 | > 25 | 0.0646 ± 0.00116 |  |  |  | 
13 | CCc1nc(N)nc(N)c1OCCc1cn(-c2ccc(C(=O)OC)cc2)nn1 [Compound 21] | 1.06 ± 0.0895 | > 25 | 0.49 ± 0.07 | 0.00048 ± 0.0001 | > 25 | 0.00856 ± 0.00146 |  |  |  | 
14 | CCc1nc(N)nc(N)c1OCc1csc(-c2ccc(OCC(=O)OCc3ccccc3)cc2)n1 [Compound 72] | 0.14 ± 0.022 | > 50 | 0.23 ± 0.03 | 0.0008 ± 9e-05 | > 50 | 0.0303 ± 0.00563 |  |  |  | 
15 | CCc1nc(N)nc(N)c1OCCCc1cn(-c2cccc(C(=O)O)c2)nn1 [Compound 23] | 0.0227 ± 0.00276 | 0.32 ± 0.12 | 0.0064 ± 0.0005 | 0.00025 ± 2e-05 | > 25 | 0.00042 ± 6e-05 |  |  |  | 
16 | CCc1nc(N)nc(N)c1OCc1csc(-c2cccc(OCC(=O)O)c2)n1 [Compound 64] | 0.184 ± 0.0214 | > 50 | 0.55 ± 0.12 | 0.0006 ± 4e-05 | > 50 | 0.0413 ± 0.00741 |  |  |  | 
17 | CCc1nc(N)nc(N)c1OCc1coc(-c2cccc(OCC(=O)O)c2)n1 [Compound 54] | 0.54 ± 0.0252 | > 50 | 3.82 ± 0.21 | 0.00119 ± 0.00015 | > 50 | 0.261 ± 0.019 |  |  |  | 
18 | CCc1nc(N)nc(N)c1OCc1cn(-c2ccc(C(=O)OC)cc2)nn1 [Compound 18] |  | 13.6 ± 3.22 | 10.5 ± 3.1 | 0.00654 ± 0.00125 | > 50 | 0.833 ± 0.045 | High |  |  | 
19 | CCc1nc(N)nc(N)c1OCc1cn(-c2ccc(C(=O)O)cc2)nn1 [Compound 19] |  | > 10 | > 10 | 0.00779 ± 0.00133 | > 10 | 0.671 ± 0.0272 | High |  |  | 

Row | SMILES | Ki [1] [µM] | IC50 [2, 5] [µM] | IC50 [3, 6] [µM] | Ki (wild type (WT) pfDHFR) [µM] | IC50 (in vitro) [µM] | Ki [4] [µM] | Ki hDHFR [1] | Ki pfDHFR N51I + C59R + S108N + I164L (QM) ([4]; quadruple mutant pfDHFR, hydrochloride salts) | IC50 [2] [µM] | IC50 [3] [µM]
20 | CCc1nc(N)nc(N)c1OCc1cc(-c2ccc(Cl)cc2)no1 [Compound 35] | 1.17 ± 0.13 |  |  | 0.00095 ± 2e-05 | > 25 | 0.065 ± 0.0119 |  |  | 20.9 ± 4.08 | 2.5 ± 0.34
21 | CCc1nc(N)nc(N)c1OCc1cc(-c2cccc(C(F)(F)F)c2)no1 [Compound 37] | > 100 | 20.2 ± 1.37 | 3.26 ± 0.81 | 0.00212 ± 0.00018 | 37.1 ± 1.81 | 0.106 ± 0.0173 |  |  |  | 
22 | CCc1nc(N)nc(N)c1OCc1cc(-c2ccc(C(=O)O)cc2)no1 [Compound 44] | > 100 | > 10 | 7.77 ± 1.47 | 0.00375 ± 0.00031 | > 10 | 0.245 ± 0.0346 |  |  |  | 
23 | CCc1nc(N)nc(N)c1OCCc1csc(-c2ccccc2)n1 [Compound 76] | 0.021 ± 0.00124 | 17.8 ± 6.8 | 0.011 ± 0.002 | 0.00094 ± 0.00016 | 1.33 ± 0.46 | 0.00728 ± 0.00069 |  |  |  | 
24 | CCc1nc(N)nc(N)c1OCc1csc(-c2ccc(Cl)cc2)n1 [Compound 70] | 0.286 ± 0.0471 | 24.3 ± 9.37 | 1.18 ± 0.03 | 0.00074 ± 9e-05 | 63.5 ± 17.6 | 0.0302 ± 0.00159 |  |  |  | 
25 | CCc1nc(N)nc(N)c1OCCc1coc(-c2ccc(C(=O)O)cc2)n1 [Compound 59] | 0.0174 ± 0.00114 | > 10 | 0.052 ± 0.01 | 0.00026 ± 1e-05 | > 10 | 0.00156 ± 7e-05 |  |  |  | 
26 | CCc1nc(N)nc(N)c1OCCCc1cc(-c2cccc(C#N)c2)no1 [Compound 47] | 0.0214 ± 0.00091 |  |  | 0.00027 ± 3e-05 | 0.56 | 0.00102 ± 7e-05 |  |  | 5.51 ± 0.47 | 0.04 ± 0.007
27 | CCc1nc(N)nc(N)c1-c1cn(Cc2ccc(C(=O)OC)cc2)nn1 [Compound 4] | 0.555 ± 0.0201 |  |  | 0.0033 ± 0.00036 | > 25 | 0.0052 ± 0.00062 |  |  | > 25 | 5.53 ± 0.84
28 | CCc1nc(N)nc(N)c1OCCCc1cc(-c2cccc(C(F)(F)F)c2)no1 [Compound 46] | 0.02612 ± 0.00024 |  |  | 0.00039 ± 3e-05 | 10.5 | 0.00174 ± 0.00014 |  |  | 17.7 ± 4.74 | 0.13 ± 0.04
29 | CCc1nc(N)nc(N)c1OCCc1coc(-c2ccccc2)n1 [Compound 58] | 0.0204 ± 0.0021 |  |  | 0.00055 ± 2e-05 | 5.59 ± 1.84 | 0.00463 ± 0.00022 |  |  | 53.1 ± 15.2 | 0.048 ± 0.021
30 | CCc1nc(N)nc(N)c1-c1cn(Cc2ccc(OC(=O)N(c3ccccc3)c3ccccc3)cc2)nn1 [Compound 6] |  | 4.31 ± 0.93 | 5.59 ± 1.54 | 0.0103 ± 0.00169 | > 25 | 0.0175 ± 0.00219 | High |  |  | 
31 | CCc1nc(N)nc(N)c1OCc1csc(-c2cccc(C)c2)n1 [Compound 61] | 0.1315 ± 0.00088 | 18 ± 7.77 | 0.84 ± 0.1 | 0.00034 ± 5e-05 | 31.3 ± 7.75 | 0.0377 ± 0.00304 |  |  |  | 
32 | CCc1nc(N)nc(N)c1OCc1cn(Cc2cc(F)c(O)c(F)c2)nn1 [Compound 27] |  | > 50 | 16.1 ± 6.02 | 0.00941 ± 0.00085 | > 50 | 0.285 ± 0.0141 | High |  |  | 
33 | CCc1nc(N)nc(N)c1OCc1csc(-c2ccc(C(=O)O)cc2)n1 [Compound 75] | 0.301 ± 0.0244 | > 50 | 2.65 ± 0.43 | 0.00069 ± 0.00012 | > 50 | 0.0392 ± 0.00382 |  |  |  | 
34 | CCc1nc(N)nc(N)c1OCc1csc(-c2ccc(Br)cc2)n1 [Compound 71] | 0.203 ± 0.0272 | 18.7 ± 1.9 | 1.09 ± 0.44 | 0.00076 ± 0.00015 | > 25 | 0.0243 ± 0.00175 |  |  |  | 
35 | CCc1nc(N)nc(N)c1OCc1cn(-c2ccc([N+](=O)[O-])cc2)nn1 [Compound 17] | > 500 | 14.9 ± 3.82 | 4.25 ± 1.37 | 0.0427 ± 0.00099 | > 50 | 1.99 ± 0.318 |  |  |  | 
36 | CCc1nc(N)nc(N)c1OCc1coc(-c2ccccc2)n1 [Compound 50] | 0.292 ± 0.0222 | 13.7 ± 4.08 | 2.25 ± 0.71 | 0.00133 ± 7e-05 | > 50 | 0.0556 ± 0.00879 |  |  |  | 
37 | CCc1nc(N)nc(N)c1OCCc1cn(-c2ccc(C(=O)O)cc2)nn1 [Compound 22] |  | > 50 | 0.62 ± 0.18 | 0.00026 ± 4e-05 | > 50 | 0.00464 ± 0.0006 | High |  |  | 
